Literature values as cited in patent publication US6002023A, “2-debenzoyl-2-acyl taxol derivatives and method for making same” (Virginia Tech Intellectural Properties, Inc., priority 1997, dated 1999).

Settings: in some assays; cited from earlier work

CC(=O)O[C@@]12CO[C@@H]1C[C@H](O)[C@@]1(C)C(=O)[C@H](O)C3=C(C)[C@@H](OC(=O)[C@H](O)[C@@H](NC(=O)OC(C)(C)C)c4ccccc4)C[C@@](O)([C@@H](OC(=O)c4ccccc4)[C@H]21)C3(C)C [Taxotere]
activity relative to taxol: approximately twice as active as taxol
